Experimental data reported in the NIST ThermoML archive (doi:10.1021/je500239t).
Several values for one entry are separate records, joined by “and”; a condition that tells them apart may be missing. Identical values can stand only once. ± gives the expanded uncertainty stated by the source.

Conditions: for mass density: Liquid, isochoric method; for surface tension liquid-gas: Ring tensiometer

CCCCCCCCCCCCCC[P+](CCCCCC)(CCCCCC)CCCCCC.O=S(=O)([N-]S(=O)(=O)C(F)(F)F)C(F)(F)F
Conditions | mass density [kg/m3]
219.01 K, 845.2 kPa | 1126.5 ± 1.5
225.43 K, 10086 kPa | 1125.99 ± 1.5
225.43 K, 30200 kPa | 1132.83 ± 1.5
232.16 K, 19479 kPa | 1125.46 ± 1.5
233.47 K, 2869.4 kPa | 1117.39 ± 1.5
239.5 K, 10003 kPa | 1116.86 ± 1.5
239.51 K, 29986 kPa | 1124.87 ± 1.5
246.7 K, 20172 kPa | 1116.37 ± 1.5
247.35 K, 40212 kPa | 1124.27 ± 1.5
247.71 K, 1577.7 kPa | 1107.13 ± 1.5
254.34 K, 29850 kPa | 1115.68 ± 1.5
254.34 K, 29998 kPa | 1115.78 ± 1.5
254.36 K, 9848.1 kPa | 1106.63 ± 1.5
255.79 K, 51007 kPa | 1123.62 ± 1.5
262.3 K, 20026 kPa | 1106.02 ± 1.5
262.46 K, 40028 kPa | 1115.06 ± 1.5
263.55 K, 901 kPa | 1095.02 ± 1.5
268.29 K, 100 kPa | 1090.79 ± 0.8
270.61 K, 30010 kPa | 1105.4 ± 1.5
270.69 K, 9770.1 kPa | 1094.49 ± 1.5
270.95 K, 49862 kPa | 1114.43 ± 1.5
273.26 K, 100 kPa | 1087.18 ± 0.8
278.4 K, 100 kPa | 1083.71 ± 0.8
279.46 K, 39911 kPa | 1104.75 ± 1.5
280.16 K, 20417 kPa | 1093.79 ± 1.5
281.02 K, 1048.9 kPa | 1082.63 ± 1.4
283.3 K, 100 kPa | 1079.84 ± 0.79
288.55 K, 100 kPa | 1076.14 ± 0.79
288.56 K, 49907 kPa | 1104.08 ± 1.5
288.91 K, 10149 kPa | 1082.04 ± 1.4
288.92 K, 30030 kPa | 1093.15 ± 1.5
292.93 K, 100 kPa | 1072.95 ± 0.79
298 K, 39766 kPa | 1092.49 ± 1.5
298.17 K, 191.9 kPa | 1068.8 ± 1.4
298.17 K, 19640 kPa | 1081.39 ± 1.4
298.19 K, 100 kPa | 1068.54 ± 0.78
299.08 K, 1497.9 kPa | 1069.18 ± 1.4
303.24 K, 100 kPa | 1065.2 ± 0.78
307.5 K, 49581 kPa | 1091.81 ± 1.5
307.85 K, 10007 kPa | 1068.57 ± 1.4
308.01 K, 100 kPa | 1061.72 ± 0.78
308.08 K, 30024 kPa | 1080.67 ± 1.4
309.27 K, 1043.1 kPa | 1061.06 ± 1.4
313.17 K, 100 kPa | 1057.68 ± 0.77
318.03 K, 39710 kPa | 1079.97 ± 1.4
318.05 K, 100 kPa | 1054.69 ± 0.77
318.08 K, 19797 kPa | 1067.86 ± 1.4
318.16 K, 9063.9 kPa | 1060.46 ± 1.4
318.96 K, 1508.5 kPa | 1054.33 ± 1.4
323.08 K, 100 kPa | 1051.01 ± 0.77
328.31 K, 100 kPa | 1047.34 ± 0.77
328.73 K, 10024 kPa | 1053.67 ± 1.4
328.99 K, 49945 kPa | 1079.21 ± 1.4
329.13 K, 30007 kPa | 1067.09 ± 1.4
329.82 K, 733.9 kPa | 1046.15 ± 1.4
329.83 K, 19983 kPa | 1059.65 ± 1.4
333.03 K, 100 kPa | 1044.1 ± 0.76
338.51 K, 100 kPa | 1040.38 ± 0.76
339.97 K, 40003 kPa | 1066.34 ± 1.4
340.03 K, 20057 kPa | 1052.9 ± 1.4
340.84 K, 1346 kPa | 1038.9 ± 1.4
340.84 K, 10036 kPa | 1045.42 ± 1.4
341.21 K, 30097 kPa | 1058.87 ± 1.4
342.84 K, 100 kPa | 1037.08 ± 0.76
348.34 K, 100 kPa | 1033.83 ± 0.76
350.84 K, 50030 kPa | 1065.58 ± 1.4
353.13 K, 100 kPa | 1030.2 ± 0.75
353.15 K, 20345 kPa | 1044.59 ± 1.4
353.15 K, 31348 kPa | 1052.01 ± 1.4
353.15 K, 40207 kPa | 1058.06 ± 1.4
353.16 K, 11244 kPa | 1038.09 ± 1.4
358.18 K, 100 kPa | 1026.93 ± 0.75
364.28 K, 100 kPa | 1022.11 ± 0.75

Conditions | surface tension liquid-gas
273.49 K | 31.49 ± 0.5 mN/m
273.52 K | 31.51 ± 0.5 mN/m
278.33 K | 31.18 ± 0.49 mN/m
278.52 K | 31.21 ± 0.49 mN/m
283.37 K | 30.85 ± 0.49 mN/m
283.39 K | 30.94 ± 0.49 mN/m
288.38 K | 30.66 ± 0.49 mN/m
288.5 K | 30.56 ± 0.48 mN/m
293.37 K | 30.35 ± 0.48 mN/m
298.24 K | 30.13 ± 0.48 mN/m
298.25 K | 30.11 ± 0.48 mN/m
303.15 K | 29.82 ± 0.47 mN/m
303.17 K | 29.89 ± 0.47 mN/m
308.18 K | 29.56 ± 0.47 mN/m
308.21 K | 29.37 ± 0.47 mN/m
313.21 K | 29.15 ± 0.46 mN/m
313.22 K | 29.24 ± 0.46 mN/m
318.2 K | 29.03 ± 0.46 mN/m
318.23 K | 28.86 ± 0.46 mN/m
323.19 K | 28.56 ± 0.46 mN/m
323.28 K | 28.54 ± 0.46 mN/m
328.11 K | 28.34 ± 0.46 mN/m
328.28 K | 27.99 ± 0.46 mN/m
333.15 K | 27.89 ± 0.45 mN/m and 27.98 ± 0.45 mN/m
338.1 K | 27.59 ± 0.45 mN/m
338.13 K | 27.94 ± 0.45 mN/m
343 K | 27.46 ± 0.44 mN/m
343.05 K | 27.3 ± 0.44 mN/m
348 K | 27.14 ± 0.44 mN/m
348.34 K | 26.92 ± 0.44 mN/m
353.32 K | 26.56 ± 0.43 mN/m
353.33 K | 26.79 ± 0.44 mN/m
358.1 K | 26.38 ± 0.43 mN/m
358.49 K | 26.45 ± 0.43 mN/m
364.76 K | 26.01 ± 0.43 mN/m
364.97 K | 25.93 ± 0.43 mN/m
